A short description of data set [1]: Plasma stability in frozen monkey plasma. The class given is in vitro ADME. To be noted: 37° C., 10% CO2, read-out: T1/2 Monkey Plasma (converted). The procedure:
(§1) Plasma stability of the compounds 1-19 (1 μM) was evaluated in frozen monkey and human plasma at 37° C. in a 10% CO2 environment. The stability of the analyte was assessed by determining the percentage of drug loss over the course of 0, 0.25, 0.5, 1, and 3 hr. In addition, the appearance of Compound A was determined for the same time course. Percent of drug loss as based on ratio with internal standard. Analyte concentrations were measured by LC/MS/MS. Linear regression was performed with log transformed percent of average TO values and linear time values. The elimination rate constant (ke) was calculated from the slope of this regression line and the half-life (T1/2) calculated based on the elimination rate constant.

Data set [2] in a line: Plasma stability in frozen human plasma. The class given is in vitro ADME. To be noted: 37° C., 10% CO2, read-out: T1/2 Human Plasma (converted). The procedure: as §1
A short description of data set [3]: Aqueous solubility (slurry in pH 7 buffer, UPLC). Particulars: pH 7.0 phosphate buffer, amorphous material; for solubility: aqueous buffer, thermodynamic from solid, read-out: Aqu. Solubility. Format: physicochemical. As to the method: Aqueous solubility of the compounds was measured by suspending, sonicating (30 minutes), and slurrying (2 hours, 1000 rpm) excess solid (typically 5-10 mg) in phosphate buffered saline at pH 7, or equivalent pH 7 buffer. The suspension was then sonicated again for 30 minutes and stirred again at 1000 rpm for at least 6-24 hours. Approximately 400 μL of sample was removed and placed into spin filters. Each sample was spun at 14K rpm for 10 minutes using a 0.45 μm PVDF spin filter. A portion of the filtrate was removed and diluted with 1:1 ACN:H2O. The resultant samples were analyzed using UPLC analysis. Retains of the solids were checked by XRPD to determine if the material was crystalline or amorphous. Solubility of Compound A was measured at 140 μg/mL at pH 7.4 in PBS buffer solution.

The structures appear in SMILES notation. ≈ marks a conversion by molar mass, not a printed value.

Broadly, the solubility is how much of the substance goes into solution per volume. For the molecule `Cc1ccc([C@H]2C[C@@H]2COc2cc(N(Cc3nnc(C)s3)C(=O)OCc3oc(=O)oc3C)nc(C)n2)nc1` [Compound 1, (5-Methyl-2-oxo-1,3-dioxol-4-yl)methyl ((5-methyl-1,3,4-thiadiazol-2-yl)methyl)(2-methyl-6-(((1S,2S)-2-(5-methylpyridin-2-yl)cyclopropyl)methoxy)pyrimidin-4-yl)carbamate], the half-life at 1 μM in data set [1] was 6.6 min; in data set [2] it was 3.6 min. In data set [3], the solubility came out at 2.3 µg/mL (≈ 4.27 µM).

In the case of `Cc1ccc([C@H]2C[C@@H]2COc2cc(N(Cc3nnc(C)s3)Sc3ccccc3)nc(C)n2)nc1` [Compound 2, N-((5-Methyl-1,3,4-thiadiazol-2-yl)methyl)-N-(2-methyl-6-(((1S,2S)-2-(5-methylpyridin-2-yl)cyclopropyl)methoxy)pyrimidin-4-yl)-S-phenylthiohydroxylamine], the values for the half-life at 1 μM in data set [1] and in data set [2] were 4.8 min and 17.4 min, respectively. Moreover, the “Aqu. Solubility” value in data set [3] is “BLQ”.

On to `Cc1ccc([C@H]2C[C@@H]2COc2cc(N(Cc3nnc(C)s3)C(=O)c3ccccc3)nc(C)n2)nc1` [Compound 3, N-((5-Methyl-1,3,4-thiadiazol-2-yl)methyl)-N-(2-methyl-6-(((1S,2S)-2-(5-methylpyridin-2-yl)cyclopropyl)methoxy)pyrimidin-4-yl)benzamide], for which the half-life at 1 μM in data set [1] was 69 min; in data set [2], 182 min. The solubility in data set [3] was 19 µg/mL (≈ 39 µM).

As to `CCCCCOC(=O)N(Cc1nnc(C)s1)c1cc(OC[C@H]2C[C@@H]2c2ccc(C)cn2)nc(C)n1` [Compound 4, Pentyl ((5-methyl-1,3,4-thiadiazol-2-yl)methyl)(2-methyl-6-(((1S,2S)-2-(5-methylpyridin-2-yl)cyclopropyl)methoxy)pyrimidin-4-yl)carbamate], the results for the half-life at 1 μM in data set [1] and in data set [2] were 104 min and 412 min, respectively. For the same molecule, the solubility in data set [3] was found to be 0.008 µg/mL (≈ 0.0161 µM).

With `Cc1ccc([C@H]2C[C@@H]2COc2cc(N(Cc3nnc(C)s3)C(=O)OCOC(=O)c3ccccc3)nc(C)n2)nc1` [Compound 5, ((((5-Methyl-1,3,4-thiadiazol-2-yl)methyl)(2-methyl-6-(((1S,2S)-2-(5-methylpyridin-2-yl)cyclopropyl)methoxy)pyrimidin-4-yl)carbamoyl)oxy)methyl benzoate], the results for the half-life at 1 μM in data set [1] and in data set [2] were 78.6 min and 104 min, respectively. In addition, in data set [3], the solubility came to 0.02 µg/mL (≈ 0.0357 µM).

Turning to `CCCCCC(=O)OCOC(=O)N(Cc1nnc(C)s1)c1cc(OC[C@H]2C[C@@H]2c2ccc(C)cn2)nc(C)n1` [Compound 6, ({(2-Methyl-6-{[(1S,2S)-2-(5-methylpyridin-2-yl)cyclopropyl]methoxylpyrimidin-4-yl)[(5-methyl-1,3,4-thiadiazol-2-yl)methyl]carbamoyl}oxy)methyl hexanoate], the half-life at 1 μM was 14.4 min in data set [1] and 21 min in data set [2]. Moreover, the solubility in data set [3] worked out at 0.02 µg/mL (≈ 0.0361 µM).

On to `CCC(=O)OCOC(=O)N(Cc1nnc(C)s1)c1cc(OC[C@H]2C[C@@H]2c2ccc(C)cn2)nc(C)n1` [Compound 7, ({(2-Methvl-6-{[(1S,2S)-2-(5-methylpyridin-2-yl)cyclopropyl]methoxy}pyrimidin-4-yl)[(5-methyl-1,3,4-thiadiazol-2-yl)methyl|carbamoyl}oxy)methyl propanoate], for which the half-life at 1 μM in data set [1] is 5.4 min; in data set [2] it was 4.8 min. In data set [3], the solubility was 15 µg/mL (≈ 29.3 µM).

As for `Cc1ccc([C@H]2C[C@@H]2COc2cc(N(Cc3nnc(C)s3)C(=O)OCOC(=O)c3ccncc3)nc(C)n2)nc1` [Compound 8, ({(2-Methyl-6-{[(1S,2S)-2-(5-methylpyridin-2-yl)cyclopropyl]methoxy}pyrimidin-4-yl)[(5-methyl-1,3,4-thiadiazol-2-yl)methyl]carbamoyl}oxy)methyl pyridine-4-carboxylate], the half-life at 1 μM was 9.6 min in data set [1] and 11.4 min in data set [2]. For the same molecule, the solubility in data set [3] was 0.139 µg/mL (≈ 0.247 µM).

Turning to `Cc1ccc([C@H]2C[C@@H]2COc2cc(N(Cc3nnc(C)s3)C(=O)OCOC(=O)c3ccccn3)nc(C)n2)nc1` [Compound 9, ({(2-Methyl-6-{[(1S,2S)-2-(5-methylpyridin-2-yl)cyclopropyl]methoxy}pyrimidin-4-yl)[(5-methyl-1,3.4-thiadiazol-2-yl)methyl]carbamoyl}oxy)methyl pyridine-2-carboxylate], the half-life at 1 μM is 6 min in data set [1] and 7.2 min in data set [2]. Also, the solubility in data set [3] was 0.058 µg/mL (≈ 0.103 µM).

For the molecule `Cc1ccc([C@H]2C[C@@H]2COc2cc(N(Cc3nnc(C)s3)C(=O)OCOC(=O)c3cccnc3)nc(C)n2)nc1` [Compound 10, ({(2-Methyl-6-{[(1S,2S)-2-(5-methylpyridin-2-ylcyclopropyl]methoxy}pyrimidin-4-yl)|(5-methyl-1,3,4-thiadiadol-2-yl)methyl]carbamoyl}oxy)methyl pyridine-3-carboxylate], the half-life at 1 μM in data set [1] is 30.6 min; in data set [2], 55.8 min. Moreover, the solubility in data set [3] amounted to 0.05 µg/mL (≈ 0.089 µM).

`Cc1ccc([C@H]2C[C@@H]2COc2cc(N(Cc3nnc(C)s3)C(=O)OCOC(=O)c3ccc(F)cc3)nc(C)n2)nc1` [Compound 11, ({(2-Methyl-6-{[(1S,2S)-2-(5-methylpyridin-2-yl)cyclopropyl]methoxy}pyrimidin-4-yl)[(5-methyl-1,3,4-thiadiazol-2-yl)methyl]carbamoyl}oxy)methyl 4-fluorobenzoate]: the half-life at 1 μM was 43.2 min in data set [1] and 64.8 min in data set [2]. Besides, the solubility in data set [3] came to 0.07 µg/mL (≈ 0.121 µM).

With `Cc1ccc([C@H]2C[C@@H]2COc2cc(N(Cc3nnc(C)s3)C(=O)OCOC(=O)c3ccccc3F)nc(C)n2)nc1` [Compound 13, ({(2-Methyl-6-{[(1S,2S)-2-(5-methylpyridin-2-yl)cyclopropyl]methoxy}pyrimidin-4-yl)[(5-methyl-1,3,4-thiadiazol-2-yl)methyl]carbamoyl}oxy)methyl 2-fluorobenzoate], the half-life at 1 μM in data set [1] is 16.8 min; in data set [2], 27 min. In addition, the solubility in data set [3] is 0.08 µg/mL (≈ 0.138 µM).

As for `COc1ccccc1C(=O)OCOC(=O)N(Cc1nnc(C)s1)c1cc(OC[C@H]2C[C@@H]2c2ccc(C)cn2)nc(C)n1` [Compound 14, ({(2-Methyl-6-{[(1S,2S)-2-(5-methylpyridin-2-yl)cyclopropyl]methoxy}pyrimidin-4-yl)[(5-methyl-1,3,4-thiadiazol-2-yl)methyl]carbamoyl}oxy)methyl 2-methoxybenzoate], the half-life at 1 μM is 54 min in data set [1] and 126 min in data set [2]. For the same molecule, the solubility in data set [3] was found to be 0.02 µg/mL (≈ 0.0339 µM).

Regarding `COc1cccc(C(=O)OCOC(=O)N(Cc2nnc(C)s2)c2cc(OC[C@H]3C[C@@H]3c3ccc(C)cn3)nc(C)n2)c1` [Compound 15, ({(2-Methyl-6-{[(1S,2S)-2-(5-methylpyridin-2-yl)cyclopropyl]methoxy}pyrimidin-4-yl)[(5-methyl-1,3,4-thiadiazol-2-yl)methyl]carbamoyl}oxy)methyl 3-methoxybenzoate], the figures for the half-life at 1 μM in data set [1] and in data set [2] were 67.2 min and 198 min, respectively. In addition, the solubility in data set [3] is 0.12 µg/mL (≈ 0.203 µM).

On to `COc1ccc(C(=O)OCOC(=O)N(Cc2nnc(C)s2)c2cc(OC[C@H]3C[C@@H]3c3ccc(C)cn3)nc(C)n2)cc1` [Compound 16, ({(2-Methyl-6-{[(1S,2S)-2-(5-methylpyridin-2-yl)cyclopropyl]methoxy}pyrimidin-4-yl)[(5-methyl-1,3,4-thiadiazol-2-yl)methyl]carbamoyl}oxy)methyl 4-methoxybenzoate], for which the half-life at 1 μM in data set [1] was 100 min; in data set [2], 227 min. In addition, in data set [3], the solubility turned out to be 0.16 µg/mL (≈ 0.271 µM).

Regarding `Cc1ccc([C@H]2C[C@@H]2COc2cc(N(Cc3nnc(C)s3)C(=O)OCOC(=O)C(C)C)nc(C)n2)nc1` [Compound 17], the half-life at 1 μM in data set [1] is 7.2 min; in data set [2], 7.8 min. Moreover, the solubility in data set [3] was determined as 0.16 µg/mL (≈ 0.304 µM).

`Cc1ccc([C@H]2C[C@@H]2COc2cc(N(Cc3nnc(C)s3)C(=O)OCOC(=O)C3CCCCC3)nc(C)n2)nc1` [Compound 18, ({(2-Methyl-6-{[(1S,2S)-2-(5-methylpyridin-2-yl)cyclopropyl]methoxy}pyrimidin-4-yl)[(5-methyl-1,3,4-thiadiazol-2-yl)methyl]carbamoyl}oxy)methyl cyclohexanecarboxylate]: the half-life at 1 μM in data set [1] is 16.8 min; in data set [2], 21 min. Moreover, the solubility in data set [3] was determined as 0.07 µg/mL (≈ 0.124 µM).

With `CCC(CC)C(=O)OCOC(=O)N(Cc1nnc(C)s1)c1cc(OC[C@H]2C[C@@H]2c2ccc(C)cn2)nc(C)n1` [Compound 19, ({(2-Methyl-6-{[(1S,2S)-2-(5-methylpyridin-2-yl)cyclopropyl]methoxy}pyrimidin-4-yl)[(5-methyl-1,3,4-thiadiazol-2-yl)methyl]carbamoyl}oxy)methyl 2-ethylbutanoate], the half-life at 1 μM in data set [1] is 35.4 min; in data set [2], 148 min. In data set [3], the solubility was 0.03 µg/mL (≈ 0.0541 µM).

The record behind these values is patent publication US12215101B2, “Pro drugs of PDE10 compounds” (Merck Sharp & Dohme LLC, priority 2021, dated 2025).
